Laboratory results reported in patent US12680083B2, “Media for culturing naive human pluripotent stem cells” (Yeda Research and Development Co. Ltd., priority 2014, dated 2026).

Key:
[1] = test system: WIBR3 hESCs with ESRRB mCherry knock-in reporter; assay: FACS analysis of ESRRB-mCherry knock-in reporter; format: cell-based, human
Text: FIGS. 26A-C depict the targeting human ESRRB (a gene/transcription factor) locus with knockin mCherry fluorescent reporter. FIG. 26A-Targeting scheme is illustrated. Scissors indicate CRISPR-sgRNA cut site. In order to create mCherry reporter co-expressed with endogenous human ESRRB locus, the present inventors have chosen to knock in p2a-mCherry coding sequence in frame with the last exon of the human ESRRB gene. The present inventors have inserted oligos specific for the stop codon region of ESRRB gene into px335 plasmid which encodes CAS9 nickase and sgRNA. The present inventors have targeted WIBR3 human ESC OCT4 GFP knockin cell line. The efficiency of the targeting was about 30% (15 out of 48 clones) as verified by external PCR. Correct targeting was also verified by Southern Blot (SB) with external and anti-mCherry probes (FIG. 26B). After Neo cassette excision with Flippase, the whole targeted locus from one of the clones was amplified and sequenced. Clones 2-6 were correctly targeted (FIG. 26C).
FIGS. 26D-H are FACS analyses depicting expression of ESRRB-mCherry reporter in PSCs.

PKCδ = PKCδ (Homo sapiens, UniProt Q05655); conditions: cited from earlier work
PKCγ = PKCγ (Homo sapiens, UniProt P05129); conditions: cited from earlier work
PKCβ = PKCβ (Homo sapiens, UniProt P05771); conditions: cited from earlier work
PKCα = PKCα (Homo sapiens, UniProt P17252); conditions: cited from earlier work
PKCζ = target: T1, PKCζ (Homo sapiens, UniProt Q05513); conditions: cited from earlier work
T1 sequence (Q05513 1-592): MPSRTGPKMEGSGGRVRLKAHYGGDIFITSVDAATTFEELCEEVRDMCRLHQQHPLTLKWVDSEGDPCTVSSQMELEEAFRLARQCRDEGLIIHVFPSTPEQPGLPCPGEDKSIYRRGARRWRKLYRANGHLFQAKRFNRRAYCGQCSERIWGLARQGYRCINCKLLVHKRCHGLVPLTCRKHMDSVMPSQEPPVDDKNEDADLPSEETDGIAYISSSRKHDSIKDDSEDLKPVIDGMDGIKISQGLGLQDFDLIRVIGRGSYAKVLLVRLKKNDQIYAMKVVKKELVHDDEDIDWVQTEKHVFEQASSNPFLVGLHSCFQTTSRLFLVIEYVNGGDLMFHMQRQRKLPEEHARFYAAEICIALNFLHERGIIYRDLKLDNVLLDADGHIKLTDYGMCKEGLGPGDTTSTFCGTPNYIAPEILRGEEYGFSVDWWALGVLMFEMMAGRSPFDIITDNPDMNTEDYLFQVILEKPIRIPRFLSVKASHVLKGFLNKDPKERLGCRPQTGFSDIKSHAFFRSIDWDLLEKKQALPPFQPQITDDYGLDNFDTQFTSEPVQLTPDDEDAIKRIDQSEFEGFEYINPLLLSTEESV

PKCμ = target: T2, PKCμ (Homo sapiens, UniProt Q15139); conditions: cited from earlier work
T2 sequence (Q15139 1-912): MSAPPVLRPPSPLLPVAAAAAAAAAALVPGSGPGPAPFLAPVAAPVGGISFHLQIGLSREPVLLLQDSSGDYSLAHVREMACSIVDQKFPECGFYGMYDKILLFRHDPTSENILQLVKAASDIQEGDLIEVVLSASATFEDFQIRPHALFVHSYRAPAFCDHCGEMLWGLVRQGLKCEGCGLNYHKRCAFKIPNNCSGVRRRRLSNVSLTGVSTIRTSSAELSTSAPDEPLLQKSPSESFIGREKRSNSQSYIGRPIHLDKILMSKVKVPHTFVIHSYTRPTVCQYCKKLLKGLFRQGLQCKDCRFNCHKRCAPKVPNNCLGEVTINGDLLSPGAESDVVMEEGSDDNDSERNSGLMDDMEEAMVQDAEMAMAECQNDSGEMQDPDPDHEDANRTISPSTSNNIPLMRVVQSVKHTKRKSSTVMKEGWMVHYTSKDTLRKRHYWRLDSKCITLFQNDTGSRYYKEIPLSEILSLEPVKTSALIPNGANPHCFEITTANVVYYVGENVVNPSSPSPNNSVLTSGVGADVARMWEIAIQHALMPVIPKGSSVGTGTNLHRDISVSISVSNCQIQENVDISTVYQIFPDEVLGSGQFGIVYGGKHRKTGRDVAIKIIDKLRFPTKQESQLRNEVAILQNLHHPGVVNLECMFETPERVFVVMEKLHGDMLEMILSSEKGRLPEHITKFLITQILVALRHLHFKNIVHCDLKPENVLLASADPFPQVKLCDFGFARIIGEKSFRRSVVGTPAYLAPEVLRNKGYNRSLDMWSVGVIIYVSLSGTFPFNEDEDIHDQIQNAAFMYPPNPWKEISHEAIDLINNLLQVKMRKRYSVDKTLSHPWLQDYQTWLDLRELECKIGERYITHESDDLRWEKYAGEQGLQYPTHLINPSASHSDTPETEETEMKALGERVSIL

PKCβ, sequence (P05771 whole entry, species assumed): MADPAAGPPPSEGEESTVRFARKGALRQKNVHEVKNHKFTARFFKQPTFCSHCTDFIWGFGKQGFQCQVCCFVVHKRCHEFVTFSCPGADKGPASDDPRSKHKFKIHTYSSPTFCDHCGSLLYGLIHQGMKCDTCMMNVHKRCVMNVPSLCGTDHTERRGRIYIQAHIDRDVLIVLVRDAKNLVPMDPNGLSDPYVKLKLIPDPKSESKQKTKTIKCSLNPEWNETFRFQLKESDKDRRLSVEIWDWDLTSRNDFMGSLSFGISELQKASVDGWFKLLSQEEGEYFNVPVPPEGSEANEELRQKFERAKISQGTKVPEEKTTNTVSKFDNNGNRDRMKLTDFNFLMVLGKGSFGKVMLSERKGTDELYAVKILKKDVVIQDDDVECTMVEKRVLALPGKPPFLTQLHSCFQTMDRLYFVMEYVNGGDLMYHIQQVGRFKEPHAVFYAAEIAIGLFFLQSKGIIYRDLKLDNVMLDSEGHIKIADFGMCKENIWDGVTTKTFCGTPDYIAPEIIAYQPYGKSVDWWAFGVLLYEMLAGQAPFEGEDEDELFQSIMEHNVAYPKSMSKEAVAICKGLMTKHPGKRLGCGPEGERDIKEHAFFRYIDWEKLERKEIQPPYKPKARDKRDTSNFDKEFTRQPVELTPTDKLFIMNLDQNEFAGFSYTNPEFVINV
PKCδ, sequence (Q05655 whole entry): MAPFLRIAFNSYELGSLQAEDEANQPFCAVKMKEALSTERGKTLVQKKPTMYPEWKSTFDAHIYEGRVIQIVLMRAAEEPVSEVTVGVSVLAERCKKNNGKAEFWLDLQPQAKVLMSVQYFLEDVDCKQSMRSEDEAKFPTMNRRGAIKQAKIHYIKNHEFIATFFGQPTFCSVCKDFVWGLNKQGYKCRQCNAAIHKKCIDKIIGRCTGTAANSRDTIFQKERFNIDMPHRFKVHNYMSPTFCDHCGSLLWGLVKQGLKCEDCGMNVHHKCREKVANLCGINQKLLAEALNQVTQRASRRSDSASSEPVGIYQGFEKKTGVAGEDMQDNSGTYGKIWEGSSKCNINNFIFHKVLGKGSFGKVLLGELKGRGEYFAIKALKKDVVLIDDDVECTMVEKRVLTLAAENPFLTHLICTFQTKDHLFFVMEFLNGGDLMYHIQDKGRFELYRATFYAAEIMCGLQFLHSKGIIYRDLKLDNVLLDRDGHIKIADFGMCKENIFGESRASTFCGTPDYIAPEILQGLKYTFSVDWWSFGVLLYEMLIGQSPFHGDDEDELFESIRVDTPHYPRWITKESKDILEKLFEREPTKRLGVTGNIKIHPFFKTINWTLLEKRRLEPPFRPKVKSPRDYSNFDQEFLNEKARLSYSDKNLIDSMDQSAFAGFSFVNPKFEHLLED

## COc1cc2nc(N3CCCN(C)CC3)nc(NC3CCN(Cc4ccccc4)CC3)c2cc1OC [BIX01294]
[1]; conditions 136 with BIX01294 removed from the culture medium
  ESRRB mCherry expression: this effect is lost

## COc1ccc2c(c1)c(C1=C(c3c[nH]c4ccccc34)C(=O)NC1=O)cn2CCCN(C)C [Go6983]
PKCδ
  IC50: 10 nM
PKCγ
  IC50: 6 nM
PKCβ
  IC50: 7 nM
PKCα
  IC50: 7 nM
PKCζ
  IC50: 60 nM
PKCμ
  IC50: 20000 nM

B1: Activin A: also known as Inhibin beta A, INHBA; activator of TGF/ACTIVIN pathway (protein, listed as Homo sapiens)
chain: MPLLWLRGFLLASCWIIVRSSPTPGSEGHSAAPDCPSCALAALPKDVPNSQPEMVEAVKKHILNMLHLKKRPDVTQPVPKAALLNAIRKLHVGKVGENGYVEIEDDIGRRAEMNELMEQTSEIITFAESGTARKTLHFEISKEGSDLSVVERAEVWLFLKVPKANRTRTKVTIRLFQQQKHPQGSLDTGEEAEEVGLKGERSELLLSEKVVDARKSTWHVFPVSSSIQRLLDQGKSSLDVRIACEQCQESGASLVLLGKKKKKEEEGEGKKKGGGEGGAGADEEKEQSHRPFLMLQARQSEDHPHRRRRRGLECDGKVNICCKKQFFVSFKDIGWNDWIIAPSGYHANYCEGECPSHIAGTSGSSLSFHSTVINHYRMRGHSPFANLKSCCVPTKLRPMSMLYYDDGQNIIKKDIQNMIVEECGCS
[1]; conditions 136 with Activin A added
  ESRRB mCherry expression: this effect is lost
